Experimental data taken from PubChem BioAssay AID226 (DTP/NCI, 2004).
Several values for one entry are separate records, joined by “and”; a condition that tells them apart may be missing. Equal values may be shown once. Inconclusive results and toxic doses are left out.

Tested on: B6C3F1 mice, intracerebral ependymoblastoma, median survival T/C
Test: NCI In Vivo Anticancer Drug Screen. Data for tumor model Ependymoblastoma (intracerebral) in B6C3F1 mice
Details: endpoint: median survival time, higher = longer survival
Description: The antitumor activity of compounds was measured in mice bearing transplantable tumors. Survival or tumor size were measured and the results are expressed as the measurement made in the treated group (T) divided by the measurement made in the vehicle treated control group (C). The tumor model used in this assay is Ependymoblastoma (intracerebral) in B6C3F1 mice

[1] = dose: 64.0 mg/kg/injection, schedule: Q01DX005 (ip), vehicle: saline with Tween-80
[2] = dose: 128.0 mg/kg/injection, schedule: Q01DX005 (ip), vehicle: saline with Tween-80

Compound: O=C(NP(=O)(N1CC1)N1CC1)c1cc(I)ccc1I
- T/C (dose: 8.0 mg/kg/injection, schedule: Q01DX005 (ip), vehicle: saline): 104 % of control and 109 % of control
- T/C (dose: 16.0 mg/kg/injection, schedule: Q01DX005 (ip), vehicle: saline): 106 % of control and 124 % of control
- T/C (dose: 16.0 mg/kg/injection, schedule: Q#A X004 (ip), vehicle: suspension in saline): 101 % of control
- T/C (dose: 16.0 mg/kg/injection, schedule: Q#A X006 (ip), vehicle: suspension in saline): 113 % of control
- T/C (dose: 32.0 mg/kg/injection, schedule: Q01DX001 (ip), vehicle: suspension in saline): 101 % of control
- T/C (dose: 32.0 mg/kg/injection, schedule: Q01DX005 (ip), vehicle: saline): 112 % of control
- T/C (dose: 32.0 mg/kg/injection, schedule: Q#A X004 (ip), vehicle: suspension in saline): 117 % of control
- T/C (dose: 32.0 mg/kg/injection, schedule: Q#A X006 (ip), vehicle: suspension in saline): 117 % of control
- T/C (dose: 64.0 mg/kg/injection, schedule: Q01DX001 (ip), vehicle: suspension in saline): 117 % of control
- T/C (dose: 64.0 mg/kg/injection, schedule: Q01DX001 (oral), vehicle: suspension in saline): 103 % of control
- T/C (dose: 64.0 mg/kg/injection, schedule: Q#A X004 (ip), vehicle: suspension in saline): 117 % of control
- T/C (dose: 64.0 mg/kg/injection, schedule: Q#A X006 (ip), vehicle: suspension in saline): 122 % of control
- T/C (dose: 128.0 mg/kg/injection, schedule: Q01DX001 (ip), vehicle: suspension in saline): 103 % of control
- T/C (dose: 128.0 mg/kg/injection, schedule: Q01DX001 (oral), vehicle: suspension in saline): 106 % of control
- T/C (dose: 128.0 mg/kg/injection, schedule: Q01DX005 (ip), vehicle: saline): 116 % of control
- T/C (dose: 128.0 mg/kg/injection, schedule: Q#A X004 (ip), vehicle: suspension in saline): 111 % of control
- T/C (dose: 256.0 mg/kg/injection, schedule: Q01DX001 (oral), vehicle: suspension in saline): 113 % of control
- T/C (dose: 512.0 mg/kg/injection, schedule: Q01DX001 (ip), vehicle: suspension in saline): 112 % of control

Compound: c1cc2n(n1)CCN2
- T/C (dose: 32.0 mg/kg/injection, schedule: Q01DX005 (ip), vehicle: water): 93 % of control and 88 % of control
- T/C (dose: 32.0 mg/kg/injection, schedule: Q#A X006 (ip), vehicle: water): 100 % of control
- T/C (dose: 64.0 mg/kg/injection, schedule: Q01DX001 (ip), vehicle: water): 93 % of control and 94 % of control
- T/C (dose: 64.0 mg/kg/injection, schedule: Q01DX001 (oral), vehicle: water): 100 % of control and 106 % of control
- T/C (dose: 64.0 mg/kg/injection, schedule: Q01DX005 (ip), vehicle: water): 102 % of control and 104 % of control
- T/C (dose: 64.0 mg/kg/injection, schedule: Q01DX005 (oral), vehicle: water): 98 % of control
- T/C (dose: 64.0 mg/kg/injection, schedule: Q#A X002 (ip), vehicle: water): 98 % of control
- T/C (dose: 64.0 mg/kg/injection, schedule: Q#A X004 (ip), vehicle: water): 94 % of control
- T/C (dose: 64.0 mg/kg/injection, schedule: Q#A X006 (ip), vehicle: water): 102 % of control
- T/C (dose: 128.0 mg/kg/injection, schedule: Q01DX001 (ip), vehicle: water): 92 % of control and 93 % of control
- T/C (dose: 128.0 mg/kg/injection, schedule: Q01DX001 (oral), vehicle: water): 103 % of control and 108 % of control
- T/C (dose: 128.0 mg/kg/injection, schedule: Q01DX005 (ip), vehicle: water): 91 % of control and 113 % of control
- T/C (dose: 128.0 mg/kg/injection, schedule: Q01DX005 (oral), vehicle: water): 104 % of control
- T/C (dose: 128.0 mg/kg/injection, schedule: Q#A X002 (ip), vehicle: water): 100 % of control
- T/C (dose: 128.0 mg/kg/injection, schedule: Q#A X004 (ip), vehicle: water): 109 % of control
- T/C (dose: 128.0 mg/kg/injection, schedule: Q#A X006 (ip), vehicle: water): 102 % of control
- T/C (dose: 256.0 mg/kg/injection, schedule: Q01DX001 (ip), vehicle: water): 92 % of control and 100 % of control
- T/C (dose: 256.0 mg/kg/injection, schedule: Q01DX001 (oral), vehicle: water): 98 % of control and 100 % of control
- T/C (dose: 256.0 mg/kg/injection, schedule: Q01DX005 (ip), vehicle: water): 106 % of control
- T/C (dose: 256.0 mg/kg/injection, schedule: Q01DX005 (oral), vehicle: water): 116 % of control
- T/C (dose: 256.0 mg/kg/injection, schedule: Q#A X002 (ip), vehicle: water): 98 % of control
- T/C (dose: 256.0 mg/kg/injection, schedule: Q#A X006 (ip), vehicle: water): 115 % of control
- T/C (dose: 512.0 mg/kg/injection, schedule: Q01DX001 (ip), vehicle: water): 106 % of control and 122 % of control
- T/C (dose: 512.0 mg/kg/injection, schedule: Q01DX001 (oral), vehicle: water): 103 % of control and 121 % of control
- T/C (dose: 1024.0 mg/kg/injection, schedule: Q01DX001 (ip), vehicle: water): 109 % of control

Compound: Nc1ncnc2c1ncn2C1OC(CO)C(O)C1O (configuration not stated)
- T/C (dose: 64.0 mg/kg/injection, schedule: Q01DX005 (ip), vehicle: Klucel (hydroxypropylcellulose) (HPC)): 101 % of control
- T/C (dose: 128.0 mg/kg/injection, schedule: Q01DX005 (ip), vehicle: Klucel (hydroxypropylcellulose) (HPC)): 92 % of control
- T/C (dose: 256.0 mg/kg/injection, schedule: Q01DX005 (ip), vehicle: Klucel (hydroxypropylcellulose) (HPC)): 96 % of control
- T/C (dose: 512.0 mg/kg/injection, schedule: Q01DX005 (ip), vehicle: Klucel (hydroxypropylcellulose) (HPC)): 94 % of control
- T/C (dose: 1024.0 mg/kg/injection, schedule: Q01DX005 (ip), vehicle: Klucel (hydroxypropylcellulose) (HPC)): 98 % of control

Compound: CC(=O)Nc1ccc(/C=N/NC(N)=S)cc1
- T/C (dose: 50.0 mg/kg/injection, schedule: Q01DX005 (ip), vehicle: Klucel (hydroxypropylcellulose) (HPC)): 93 % of control
- T/C (dose: 100.0 mg/kg/injection, schedule: Q01DX005 (ip), vehicle: Klucel (hydroxypropylcellulose) (HPC)): 91 % of control
- T/C (dose: 200.0 mg/kg/injection, schedule: Q01DX005 (ip), vehicle: Klucel (hydroxypropylcellulose) (HPC)): 90 % of control
- T/C (dose: 400.0 mg/kg/injection, schedule: Q01DX005 (ip), vehicle: Klucel (hydroxypropylcellulose) (HPC)): 91 % of control
- T/C (dose: 800.0 mg/kg/injection, schedule: Q01DX005 (ip), vehicle: Klucel (hydroxypropylcellulose) (HPC)): 112 % of control

Compound: CO[C@H]1C[C@@H]2CC[C@@H](C)[C@@](O)(O2)C(=O)C(=O)N2CCCC[C@H]2C(=O)O[C@H]([C@H](C)C[C@@H]2CC[C@@H](O)[C@H](OC)C2)CC(=O)[C@H](C)C=C(C)[C@@H](O)[C@@H](OC)C(=O)[C@H](C)C[C@H](C)/C=C/C=C/C=C1C
- T/C (dose: 3.12 mg/kg/injection, schedule: Q01DX009 (ip), vehicle: clinical formulation): 118 % of control
- T/C (dose: 6.25 mg/kg/injection, schedule: Q01DX005 (ip), vehicle: saline with Tween-80): 113 % of control
- T/C (dose: 12.5 mg/kg/injection, schedule: Q01DX009 (ip), vehicle: gum acacia): 202 % of control
- T/C (dose: 25.0 mg/kg/injection, schedule: Q01DX005 (oral), vehicle: saline with Tween-80): 106 % of control
- T/C (dose: 25.0 mg/kg/injection, schedule: Q01DX009 (ip), vehicle: clinical formulation): 156 % of control
- T/C (dose: 25.0 mg/kg/injection, schedule: Q01DX009 (ip), vehicle: gum acacia): 198 % of control
- T/C (dose: 50.0 mg/kg/injection, schedule: Q01DX005 (oral), vehicle: saline with Tween-80): 107 % of control and 108 % of control
- T/C (dose: 50.0 mg/kg/injection, schedule: Q01DX009 (ip), vehicle: clinical formulation): 152 % of control and 156 % of control
- T/C (dose: 50.0 mg/kg/injection, schedule: Q01DX009 (ip), vehicle: gum acacia): 177 % of control
- T/C (dose: 100.0 mg/kg/injection, schedule: Q01DX005 (oral), vehicle: saline with Tween-80): 100 % of control and 107 % of control
- T/C (dose: 100.0 mg/kg/injection, schedule: Q01DX009 (ip), vehicle: clinical formulation): 162 % of control and 167 % of control
- T/C (dose: 100.0 mg/kg/injection, schedule: Q01DX009 (ip), vehicle: gum acacia): 185 % of control
- T/C (dose: 200.0 mg/kg/injection, schedule: Q01DX005 (ip), vehicle: saline with Tween-80): 113 % of control and 193 % of control and 207 % of control
- T/C (dose: 200.0 mg/kg/injection, schedule: Q01DX005 (oral), vehicle: saline with Tween-80): 103 % of control and 108 % of control
- T/C (dose: 400.0 mg/kg/injection, schedule: Q01DX005 (oral), vehicle: saline with Tween-80): 108 % of control and 119 % of control
- T/C (dose: 400.0 mg/kg/injection, schedule: Q01DX009 (ip), vehicle: gum acacia): 198 % of control
- T/C (dose: 800.0 mg/kg/injection, schedule: Q01DX005 (oral), vehicle: saline with Tween-80): 124 % of control

Compound: CCCCCN(C)/N=N/c1nc[nH]c1C(N)=O
- T/C [1]: 153 % of control
- T/C [2]: 160 % of control

Compound: CC1=C(/C=C/C(C)=C/C=C/C(C)=C/C(=O)O)C(C)(C)CCC1
- T/C (dose: 8.0 mg/kg/injection, schedule: Q01DX005 (ip), vehicle: saline with Tween-80): 99 % of control
- T/C (dose: 16.0 mg/kg/injection, schedule: Q01DX005 (ip), vehicle: saline with Tween-80): 119 % of control
- T/C (dose: 32.0 mg/kg/injection, schedule: Q01DX005 (ip), vehicle: saline with Tween-80): 115 % of control
- T/C [1]: 118 % of control
- T/C [2]: 109 % of control
